Peptide text beside a SMILES is read from it.
Tested on: Botrytis cinerea (B05.10)
Experiment: Resazurin antifungal assay of 180 alpha-factor peptide variants towards Botrytis (Example 2)
Assay type: cell-based
Conditions: % inhibition of fungal growth, Botrytis conidia, resazurin; for Inhibition at 10 μM: peptide 10 μM; for Inhibition at 20 μM: peptide 20 μM; for Inhibition at 50 μM: peptide 50 μM; for Inhibition at 100 μM: peptide 100 μM; for Inhibition at 15 μM: peptide 15 μM
Summary of the method: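 B. cinerea B05.10 conidia (5000/well) were exposed to peptides at 100, 50, 20, 15 and 10 μM final for 24 h at 20° C. Resazurin was then added and fluorescence read at 570/620 nm. Percent growth inhibition was calculated against conidia-only wells, with four technical replicates.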

| SMILES | Inhibition at 10 μM [%] | Inhibition at 20 μM [%] | Inhibition at 50 μM [%] | Inhibition at 100 μM [%] | Inhibition at 15 μM [%] |
| --- | --- | --- | --- | --- | --- |
| CC[C@H](C)[C@H](NC(=O)[C@H](CCCNC(=N)N)NC(=O)[C@H](CC(C)C)NC(=O)[C@H](Cc1c[nH]c2ccccc12)NC(=O)[C@H](CCC(N)=O)NC(=O)[C@@H](N)Cc1c[nH]c2ccccc12)C(=O)N[C@@H](CCCCN)C(=O)N[C@@H](CO)C(=O)NCC(=O)N[C@@H](CCC(N)=O)C(=O)NCC(=O)N[C@@H](CCSC)C(=O)N[C@@H](Cc1ccc(O)cc1)C(=O)O [compound 73] (H-WQWLRIKSGQGMY-OH; N-terminus and C-terminus assumed) | <90 | <90 | 100 | 100 | – |
| CSCC[C@H](NC(=O)[C@@H]1CCCN1C(=O)[C@H](CCC(N)=O)NC(=O)CNC(=O)[C@@H]1CCCN1C(=O)[C@H](Cc1c[nH]cn1)NC(=O)[C@H](CC(C)C)NC(=O)[C@H](CCCCN)NC(=O)[C@@H](NC(=O)[C@H](Cc1ccccc1)NC(=O)[C@H](Cc1c[nH]cn1)NC(=O)[C@@H](N)Cc1c[nH]c2ccccc12)C(C)C)C(=O)N[C@@H](Cc1ccc(O)cc1)C(=O)O [compound 74] (H-WHFVKLHPGQPMY-OH; N-terminus and C-terminus assumed) | <90 | <90 | 100 | 100 | – |
| CC[C@H](C)[C@H](NC(=O)[C@H](Cc1c[nH]c2ccccc12)NC(=O)[C@H](Cc1c[nH]cn1)NC(=O)[C@@H](N)CCCCN)C(=O)N[C@@H](CCCNC(=N)N)C(=O)N[C@@H](CC(C)C)C(=O)N[C@@H](Cc1c[nH]c2ccccc12)C(=O)N1CCC[C@H]1C(=O)NCC(=O)N[C@@H](CCC(N)=O)C(=O)N1CCC[C@H]1C(=O)N[C@@H](CCSC)C(=O)N[C@@H](Cc1ccc(O)cc1)C(=O)O [compound 75] (H-KHWIRLWPGQPMY-OH; N-terminus and C-terminus assumed) | <90 | 92.02 | 100 | 100 | <90 |
| CSCC[C@H](NC(=O)[C@H](CO)NC(=O)[C@H](C)NC(=O)CNC(=O)[C@@H]1CCCN1C(=O)[C@H](CCCCN)NC(=O)[C@H](CC(C)C)NC(=O)[C@H](CCCNC(=N)N)NC(=O)[C@H](CC(C)C)NC(=O)[C@H](Cc1c[nH]c2ccccc12)NC(=O)[C@H](Cc1c[nH]cn1)NC(=O)[C@@H](N)Cc1c[nH]c2ccccc12)C(=O)N[C@@H](Cc1ccc(O)cc1)C(=O)O [compound 76] (H-WHWLRLKPGASMY-OH; N-terminus and C-terminus assumed) | <90 | 97.59 | 100 | 100 | <90 |
| CC[C@H](C)[C@H](NC(=O)[C@H](Cc1c[nH]c2ccccc12)NC(=O)[C@H](Cc1c[nH]cn1)NC(=O)[C@@H]1CCCN1)C(=O)N[C@@H](CCCCN)C(=O)N[C@@H](CC(C)C)C(=O)N[C@@H](Cc1c[nH]cn1)C(=O)N[C@H](C(=O)NCC(=O)N[C@@H](CCC(N)=O)C(=O)N1CCC[C@H]1C(=O)N[C@@H](CCSC)C(=O)N[C@@H](Cc1ccc(O)cc1)C(=O)O)[C@@H](C)O [compound 77] (H-PHWIKLHTGQPMY-OH; N-terminus and C-terminus assumed) | <90 | <90 | 100 | 99.74 | – |
| CSCC[C@H](NC(=O)[C@@H]1CCCN1C(=O)[C@H](CCC(N)=O)NC(=O)CNC(=O)[C@@H]1CCCN1C(=O)[C@H](CCCCN)NC(=O)[C@H](Cc1ccccc1)NC(=O)[C@H](CC(N)=O)NC(=O)[C@H](CC(C)C)NC(=O)[C@H](Cc1ccccc1)NC(=O)[C@H](Cc1c[nH]cn1)NC(=O)[C@@H](N)CCCCN)C(=O)N[C@@H](Cc1ccc(O)cc1)C(=O)O [compound 78] (H-KHFLNFKPGQPMY-OH; N-terminus and C-terminus assumed) | <90 | <90 | 100 | 100 | – |
| CC[C@H](C)[C@H](NC(=O)[C@H](CC(=O)O)NC(=O)[C@H](CCCNC(=N)N)NC(=O)[C@@H](N)Cc1c[nH]c2ccccc12)C(=O)N[C@@H](CCCNC(=N)N)C(=O)N[C@@H](CC(C)C)C(=O)N[C@@H](CCCCN)C(=O)N[C@@H](CCCCN)C(=O)NCC(=O)N[C@@H](CCC(N)=O)C(=O)N1CCC[C@H]1C(=O)N[C@@H](CCSC)C(=O)N[C@@H](Cc1ccc(O)cc1)C(=O)O [compound 79] (H-WRDIRLKKGQPMY-OH; N-terminus and C-terminus assumed) | <90 | <90 | 100 | 100 | – |
| CSCC[C@H](NC(=O)[C@@H]1CCCN1C(=O)[C@H](CCC(N)=O)NC(=O)CNC(=O)[C@@H]1CCCN1C(=O)[C@H](CCCCN)NC(=O)[C@H](Cc1ccccc1)NC(=O)[C@H](CCCNC(=N)N)NC(=O)[C@H](CC(C)C)NC(=O)[C@@H](NC(=O)[C@H](Cc1c[nH]cn1)NC(=O)[C@@H](N)CCCCN)[C@@H](C)O)C(=O)N[C@@H](Cc1ccc(O)cc1)C(=O)O [compound 80] (H-KHTLRFKPGQPMY-OH; N-terminus and C-terminus assumed) | <90 | 99.56 | 100 | 100 | <90 |
| CC[C@H](C)[C@H](NC(=O)[C@H](Cc1c[nH]c2ccccc12)NC(=O)[C@H](Cc1c[nH]cn1)NC(=O)[C@@H](N)CCCCN)C(=O)N[C@@H](CCCCN)C(=O)N[C@@H](CC(C)C)C(=O)N[C@@H](CCCCN)C(=O)N[C@@H](CC(N)=O)C(=O)NCC(=O)N[C@@H](CCC(N)=O)C(=O)N1CCC[C@H]1C(=O)N[C@@H](CCSC)C(=O)N[C@@H](Cc1ccc(O)cc1)C(=O)O [compound 81] (H-KHWIKLKNGQPMY-OH; N-terminus and C-terminus assumed) | <90 | 99.51 | 100 | 100 | <90 |
| CSCC[C@H](NC(=O)[C@@H]1CCCN1C(=O)[C@H](CCC(N)=O)NC(=O)CNC(=O)[C@@H](NC(=O)[C@H](CCCCN)NC(=O)[C@H](CC(C)C)NC(=O)[C@H](CO)NC(=O)CNC(=O)[C@H](Cc1c[nH]c2ccccc12)NC(=O)[C@H](Cc1c[nH]cn1)NC(=O)[C@@H](N)Cc1c[nH]c2ccccc12)C(C)C)C(=O)N[C@@H](Cc1ccc(O)cc1)C(=O)O [compound 82] (H-WHWGSLKVGQPMY-OH; N-terminus and C-terminus assumed) | <90 | <90 | 100 | 100 | – |
| CSCC[C@H](NC(=O)[C@@H]1CCCN1C(=O)[C@H](CCC(N)=O)NC(=O)CNC(=O)[C@@H]1CCCN1C(=O)[C@H](CCCCN)NC(=O)[C@H](CC(C)C)NC(=O)[C@H](CCCNC(=N)N)NC(=O)[C@H](CC(C)C)NC(=O)[C@@H](NC(=O)[C@H](Cc1c[nH]cn1)NC(=O)[C@@H](N)CCCCN)[C@@H](C)O)C(=O)N[C@@H](Cc1ccc(O)cc1)C(=O)O [compound 83] (H-KHTLRLKPGQPMY-OH; N-terminus and C-terminus assumed) | <90 | 99.92 | 100 | 100 | <90 |
| CSCC[C@H](NC(=O)[C@H](Cc1c[nH]cn1)NC(=O)[C@@H](N)CCCCN)C(=O)N[C@@H](CC(C)C)C(=O)N[C@@H](CCCNC(=N)N)C(=O)N[C@@H](Cc1ccccc1)C(=O)N[C@@H](CCCCN)C(=O)N1CCC[C@H]1C(=O)NCC(=O)N[C@@H](CCC(N)=O)C(=O)N1CCC[C@H]1C(=O)N[C@@H](CCSC)C(=O)N[C@@H](Cc1ccc(O)cc1)C(=O)O [compound 84] (H-KHMLRFKPGQPMY-OH; N-terminus and C-terminus assumed) | <90 | 97.08 | 100 | 100 | <90 |
| CSCC[C@H](NC(=O)[C@@H]1CCCN1C(=O)[C@H](CCC(=O)O)NC(=O)CNC(=O)[C@@H]1CCCN1C(=O)[C@H](CCCCN)NC(=O)[C@H](Cc1ccccc1)NC(=O)[C@H](CCCCN)NC(=O)[C@H](CC(C)C)NC(=O)[C@H](Cc1ccccc1)NC(=O)[C@H](Cc1c[nH]cn1)NC(=O)[C@@H](N)Cc1c[nH]c2ccccc12)C(=O)N[C@@H](Cc1ccc(O)cc1)C(=O)O [compound 85] (H-WHFLKFKPGEPMY-OH; N-terminus and C-terminus assumed) | <90 | <90 | 100 | 100 | – |

Reference: patent US20250382332A1, “NOVEL ALPHA-FACTOR BASED PEPTIDES WITH ANTIFUNGAL ACTIVITY” (INVAIO SCIENCES, INC., priority 2024, published 2025)
